Measured values from the supplement of paper PMC10733146.

Experiments:
Experiment in all cases: viability relative to DMSO control (fraction); higher = less drug effect (more viable cells)
Details in all cases: 48 h
[1] = test system: primary ALL patient cells (S088)
Method in brief: (§1)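 Using 384-well plates with compounds already plated at five concentrations, one well per concentration, 4 × 10^4 primary mononuclear tumour cells were added per well. Cells were Ficoll-isolated from blood or bone marrow or came from processed lymph node, fresh or cryopreserved. They were kept for 48 h at 37 °C and 5% CO2 in RPMI-1640 supplemented with penicillin/streptomycin, L-glutamine and human serum, and viability was read as CellTiter-Glo luminescence relative to the median of 16 inner DMSO wells.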

[2] = test system: primary AML patient cells (S002)
Method in brief: as §1

[3] = test system: primary AML patient cells (S011)
Method in brief: as §1

[4] = test system: primary AML patient cells (S017)
Method in brief: as §1

[5] = test system: primary AML patient cells (S019)
Method in brief: as §1

[6] = test system: primary AML patient cells (S021)
Method in brief: as §1

[7] = test system: primary AML patient cells (S025)
Method in brief: as §1

[8] = test system: primary AML patient cells (S060)
Method in brief: as §1

[9] = test system: primary AML patient cells (S071)
Method in brief: as §1

[10] = test system: primary AML patient cells (S081)
Method in brief: as §1

[11] = test system: primary AML patient cells (S085)
Method in brief: as §1

[12] = test system: primary B-PLL patient cells (S016)
Method in brief: as §1

[13] = test system: primary BL patient cells (S005)
Method in brief: as §1

[14] = test system: primary CLL patient cells (S043)
Method in brief: as §1

[15] = test system: primary DLBCL patient cells (S049)
Method in brief: as §1

[16] = test system: primary DLBCL patient cells (S076)
Method in brief: as §1

[17] = test system: primary T-NHL patient cells (S058)
Method in brief: as §1

## O=C(c1cc(Cc2n[nH]c(=O)c3ccccc23)ccc1F)N1CCN(C(=O)C2CC2)CC1 [Olaparib]
[1]; 0.024 µM
  viability: 0.579
[1]; 0.12 µM
  viability: 0.775
[1]; 0.6 µM
  viability: 0.788
[1]; 3 µM
  viability: 0.821
[1]; 15 µM
  viability: 0.787
[2]; 0.024 µM
  viability: 0.804
[2]; 0.12 µM
  viability: 1.05
[2]; 0.6 µM
  viability: 0.935
[2]; 3 µM
  viability: 0.804
[2]; 15 µM
  viability: 0.748
[3]; 0.024 µM
  viability: 0.832
[3]; 0.12 µM
  viability: 0.871
[3]; 0.6 µM
  viability: 0.873
[3]; 3 µM
  viability: 0.799
[3]; 15 µM
  viability: 0.603
[4]; 0.024 µM
  viability: 0.796
[4]; 0.12 µM
  viability: 0.917
[4]; 0.6 µM
  viability: 0.931
[4]; 3 µM
  viability: 0.94
[4]; 15 µM
  viability: 0.914
[5]; 0.024 µM
  viability: 0.851
[5]; 0.12 µM
  viability: 0.939
[5]; 0.6 µM
  viability: 0.91
[5]; 3 µM
  viability: 0.889
[5]; 15 µM
  viability: 0.893
[6]; 0.024 µM
  viability: 0.878
[6]; 0.12 µM
  viability: 0.846
[6]; 0.6 µM
  viability: 0.895
[6]; 3 µM
  viability: 0.938
[6]; 15 µM
  viability: 0.797
[7]; 0.024 µM
  viability: 0.995
[7]; 0.12 µM
  viability: 0.973
[7]; 0.6 µM
  viability: 0.95
[7]; 3 µM
  viability: 1.01
[7]; 15 µM
  viability: 0.861
[8]; 0.024 µM
  viability: 0.947
[8]; 0.12 µM
  viability: 0.926
[8]; 0.6 µM
  viability: 0.979
[8]; 3 µM
  viability: 0.973
[8]; 15 µM
  viability: 0.987
[9]; 0.024 µM
  viability: 0.974
[9]; 0.12 µM
  viability: 1.01
[9]; 0.6 µM
  viability: 1.02
[9]; 3 µM
  viability: 0.917
[9]; 15 µM
  viability: 0.806
[10]; 0.024 µM
  viability: 0.818
[10]; 0.12 µM
  viability: 0.858
[10]; 0.6 µM
  viability: 0.889
[10]; 3 µM
  viability: 0.884
[10]; 15 µM
  viability: 0.894
[11]; 0.024 µM
  viability: 0.861
[11]; 0.12 µM
  viability: 0.866
[11]; 0.6 µM
  viability: 0.988
[11]; 3 µM
  viability: 0.793
[11]; 15 µM
  viability: 0.992
[12]; 0.024 µM
  viability: 0.86
[12]; 0.12 µM
  viability: 0.871
[12]; 0.6 µM
  viability: 0.872
[12]; 3 µM
  viability: 0.8
[12]; 15 µM
  viability: 0.722
[13]; 0.024 µM
  viability: 0.938
[13]; 0.12 µM
  viability: 0.985
[13]; 0.6 µM
  viability: 0.977
[13]; 3 µM
  viability: 0.904
[13]; 15 µM
  viability: 0.878
[14]; 0.024 µM
  viability: 0.797
[14]; 0.12 µM
  viability: 0.814
[14]; 0.6 µM
  viability: 0.835
[14]; 3 µM
  viability: 0.867
[14]; 15 µM
  viability: 0.825
[15]; 0.024 µM
  viability: 0.857
[15]; 0.12 µM
  viability: 0.937
[15]; 0.6 µM
  viability: 0.92
[15]; 3 µM
  viability: 0.894
[15]; 15 µM
  viability: 0.735
[16]; 0.024 µM
  viability: 0.91
[16]; 0.12 µM
  viability: 1.05
[16]; 0.6 µM
  viability: 1.12
[16]; 3 µM
  viability: 1
[16]; 15 µM
  viability: 0.955
[17]; 0.024 µM
  viability: 1.09
[17]; 0.12 µM
  viability: 1.11
[17]; 0.6 µM
  viability: 1.18
[17]; 3 µM
  viability: 1.13
[17]; 15 µM
  viability: 0.999

## Nc1nc(F)nc2c1ncn2[C@@H]1O[C@H](CO)[C@@H](O)[C@@H]1O [Fludarabine]
[1]; 0.016 µM
  viability: 1
[1]; 0.08 µM
  viability: 0.975
[1]; 0.4 µM
  viability: 0.715
[1]; 2 µM
  viability: 0.283
[1]; 10 µM
  viability: 0.2
[2]; 0.016 µM
  viability: 1.27
[2]; 0.08 µM
  viability: 1.07
[2]; 0.4 µM
  viability: 0.9
[2]; 2 µM
  viability: 0.457
[2]; 10 µM
  viability: 0.313
[3]; 0.016 µM
  viability: 0.942
[3]; 0.08 µM
  viability: 0.773
[3]; 0.4 µM
  viability: 0.543
[3]; 2 µM
  viability: 0.255
[3]; 10 µM
  viability: 0.0686
[4]; 0.016 µM
  viability: 1.05
[4]; 0.08 µM
  viability: 1.03
[4]; 0.4 µM
  viability: 1.07
[4]; 2 µM
  viability: 0.854
[4]; 10 µM
  viability: 0.534
[5]; 0.016 µM
  viability: 1.17
[5]; 0.08 µM
  viability: 0.967
[5]; 0.4 µM
  viability: 0.605
[5]; 2 µM
  viability: 0.301
[5]; 10 µM
  viability: 0.181
[6]; 0.016 µM
  viability: 1.04
[6]; 0.08 µM
  viability: 0.882
[6]; 0.4 µM
  viability: 0.579
[6]; 2 µM
  viability: 0.277
[6]; 10 µM
  viability: 0.183
[7]; 0.016 µM
  viability: 1.09
[7]; 0.08 µM
  viability: 0.901
[7]; 0.4 µM
  viability: 0.506
[7]; 2 µM
  viability: 0.275
[7]; 10 µM
  viability: 0.169
[8]; 0.016 µM
  viability: 1.02
[8]; 0.08 µM
  viability: 1.01
[8]; 0.4 µM
  viability: 1.06
[8]; 2 µM
  viability: 1.03
[8]; 10 µM
  viability: 0.89
[9]; 0.016 µM
  viability: 0.997
[9]; 0.08 µM
  viability: 0.973
[9]; 0.4 µM
  viability: 0.491
[9]; 2 µM
  viability: 0.195
[9]; 10 µM
  viability: 0.135
[10]; 0.016 µM
  viability: 1.1
[10]; 0.08 µM
  viability: 1.05
[10]; 0.4 µM
  viability: 1.1
[10]; 2 µM
  viability: 1.02
[10]; 10 µM
  viability: 0.89
[11]; 0.016 µM
  viability: 1.02
[11]; 0.08 µM
  viability: 1.05
[11]; 0.4 µM
  viability: 0.561
[11]; 2 µM
  viability: 0.172
[11]; 10 µM
  viability: 0.112
[12]; 0.016 µM
  viability: 1.08
[12]; 0.08 µM
  viability: 1.01
[12]; 0.4 µM
  viability: 0.929
[12]; 2 µM
  viability: 0.535
[12]; 10 µM
  viability: 0.0968
[13]; 0.016 µM
  viability: 0.972
[13]; 0.08 µM
  viability: 1.18
[13]; 0.4 µM
  viability: 0.943
[13]; 2 µM
  viability: 0.905
[13]; 10 µM
  viability: 1.05
[14]; 0.016 µM
  viability: 1.02
[14]; 0.08 µM
  viability: 0.982
[14]; 0.4 µM
  viability: 0.882
[14]; 2 µM
  viability: 0.614
[14]; 10 µM
  viability: 0.236
[15]; 0.016 µM
  viability: 1.12
[15]; 0.08 µM
  viability: 1.11
[15]; 0.4 µM
  viability: 1.04
[15]; 2 µM
  viability: 0.775
[15]; 10 µM
  viability: 0.375
[16]; 0.016 µM
  viability: 1.05
[16]; 0.08 µM
  viability: 1.07
[16]; 0.4 µM
  viability: 0.772
[16]; 2 µM
  viability: 0.373
[16]; 10 µM
  viability: 0.203
[17]; 0.016 µM
  viability: 1.15
[17]; 0.08 µM
  viability: 1.05
[17]; 0.4 µM
  viability: 0.829
[17]; 2 µM
  viability: 0.288
[17]; 10 µM
  viability: 0.133
